# Results taken from US8030443B2, “Squamous cell carcinoma antigen-derived peptide binding to HLA-A24 molecule” (Kurume University, priority 2005, dated 2011).
# Test system: peptide-specific IgG in sera of cancer patients and healthy donors
# Assay: Measurement of anti-peptide IgG in plasma by LUMINEX multiplexed flow cytometric assay
# Format: binding, human
# Procedure: The levels of anti-peptide immunoglobulin G (IgG) were measured by the LUMINEX™ system (multiplexed flow cytometric assay) as previously reported (Komatsu N, Shichijo S, Nakagawa M, Itoh K. New multiplexed flow cytometric assay to measure anti-peptide antibody: a novel tool for monitoring immune responses to peptides used for immunization. Scand J Clin Lab Invest 2004; 64:1-11). In brief, plasma was incubated with 25 μl of peptide-coupled color-coded beads for 2 hr at room temperature on a plate shaker. After incubation, the mixture was washed with a vacuum manifold apparatus and incubated with 100 μl of biotinylated goat anti-human IgG (γ chain-specific)(BA-3080, Vector Laboratories, Burlingame, Calif., USA) for 1 h at room temperature. The plate was then washed, followed by the addition of 100 μl of streptavidin-PE (S-866, Molecular Probes, Eugene, Oreg., USA) into wells, and was incubated for 30 min at room temperature on a plate shaker. The bound beads were washed three times followed by the addition of 100 μl of Tween-PBS into each well. Fifty μl of sample was detected using the LUMINEX™ system (multiplexed flow cytometric assay). To confirm the specificity of IgG to a SCCA peptide, sample plasma was cultured in plates coated with a corresponding SCCA peptide, or with an irrelevant SCCA peptide. After the operation was repeated three times, the levels of the corresponding SCCA peptide-specific IgG in the resulting supernatant were determined by the LUMINEX™ system (multiplexed flow cytometric assay).
# These 9 SCCA-derived peptides were screened based on their ability to be recognized by IgG in cancer patients. Peptide-specific IgG was measured by a multiplexed flow cytometric assay (LUMINEX™ (multiplexed flow cytometric assay)). The plasma samples were derived from 35 uterine cervical SCC patients, 10 breast adenocarcinoma patients, 10 pancreatic adenocarcinoma patients, 10 gastric adenocarcinoma, and 6 colon adenocarcinoma patients. The level of fluorescence intensity was judged to be significant when exceeded 100 at an 1/100 dilution.
sequence,measurement,setting,value
"QFQKLLTEF (SCCA 84-92 peptide) [SCCA-derived peptide, position 84-92]",Total: healthy donors with significant peptide-reactive IgG / donors tested,"10 healthy donors, significant when fluorescence intensity exceeded 100 at 1/100 dilution",1/10
same,Total: cancer patients with significant peptide-reactive IgG / patients tested,"71 cancer patients, significant when fluorescence intensity exceeded 100 at 1/100 dilution",14/71
same,Fluorescence intesity,"serum of Breast Ca. patient #36, 1:100 dilution",95
same,Fluorescence intesity,"serum of Breast Ca. patient #37, 1:100 dilution",0
same,Fluorescence intesity,"serum of Breast Ca. patient #38, 1:100 dilution",31
same,Fluorescence intesity,"serum of Breast Ca. patient #39, 1:100 dilution",34
same,Fluorescence intesity,"serum of Breast Ca. patient #40, 1:100 dilution",5
same,Fluorescence intesity,"serum of Breast Ca. patient #41, 1:100 dilution",182
same,Fluorescence intesity,"serum of Breast Ca. patient #42, 1:100 dilution",11
same,Fluorescence intesity,"serum of Breast Ca. patient #43, 1:100 dilution",26
same,Fluorescence intesity,"serum of Breast Ca. patient #44, 1:100 dilution",20
same,Fluorescence intesity,"serum of Breast Ca. patient #45, 1:100 dilution",39
same,Fluorescence intesity,"serum of Colon Ca. patient #66, 1:100 dilution",0
same,Fluorescence intesity,"serum of Colon Ca. patient #67, 1:100 dilution",47
same,Fluorescence intesity,"serum of Colon Ca. patient #68, 1:100 dilution",0
same,Fluorescence intesity,"serum of Colon Ca. patient #69, 1:100 dilution",0
same,Fluorescence intesity,"serum of Colon Ca. patient #70, 1:100 dilution",0
same,Fluorescence intesity,"serum of Colon Ca. patient #71, 1:100 dilution",8
same,Fluorescence intesity,"serum of Gastric Ca. patient #56, 1:100 dilution",18
same,Fluorescence intesity,"serum of Gastric Ca. patient #57, 1:100 dilution",7
same,Fluorescence intesity,"serum of Gastric Ca. patient #58, 1:100 dilution",0
same,Fluorescence intesity,"serum of Gastric Ca. patient #59, 1:100 dilution",118
same,Fluorescence intesity,"serum of Gastric Ca. patient #60, 1:100 dilution",0
same,Fluorescence intesity,"serum of Gastric Ca. patient #61, 1:100 dilution",102
same,Fluorescence intesity,"serum of Gastric Ca. patient #62, 1:100 dilution",0
same,Fluorescence intesity,"serum of Gastric Ca. patient #63, 1:100 dilution",0
same,Fluorescence intesity,"serum of Gastric Ca. patient #64, 1:100 dilution",7
same,Fluorescence intesity,"serum of Gastric Ca. patient #65, 1:100 dilution",0
same,Fluorescence intesity,"serum of Healthy Donor #1, 1:100 dilution",0
same,Fluorescence intesity,"serum of Healthy Donor #2, 1:100 dilution",79
same,Fluorescence intesity,"serum of Healthy Donor #3, 1:100 dilution",0
same,Fluorescence intesity,"serum of Healthy Donor #4, 1:100 dilution",0
same,Fluorescence intesity,"serum of Healthy Donor #5, 1:100 dilution",0
same,Fluorescence intesity,"serum of Healthy Donor #6, 1:100 dilution",0
same,Fluorescence intesity,"serum of Healthy Donor #7, 1:100 dilution",0
same,Fluorescence intesity,"serum of Healthy Donor #8, 1:100 dilution",332
same,Fluorescence intesity,"serum of Healthy Donor #9, 1:100 dilution",33
same,Fluorescence intesity,"serum of Healthy Donor #10, 1:100 dilution",0
same,Fluorescence intesity,"serum of Pancreas Ca. patient #46, 1:100 dilution",0
same,Fluorescence intesity,"serum of Pancreas Ca. patient #47, 1:100 dilution",3
same,Fluorescence intesity,"serum of Pancreas Ca. patient #48, 1:100 dilution",344
same,Fluorescence intesity,"serum of Pancreas Ca. patient #49, 1:100 dilution",0
same,Fluorescence intesity,"serum of Pancreas Ca. patient #50, 1:100 dilution",0
same,Fluorescence intesity,"serum of Pancreas Ca. patient #51, 1:100 dilution",0
same,Fluorescence intesity,"serum of Pancreas Ca. patient #52, 1:100 dilution",108
same,Fluorescence intesity,"serum of Pancreas Ca. patient #53, 1:100 dilution",0
same,Fluorescence intesity,"serum of Pancreas Ca. patient #54, 1:100 dilution",13
same,Fluorescence intesity,"serum of Pancreas Ca. patient #55, 1:100 dilution",0
same,Fluorescence intesity,"serum of Uterine cervical Ca. patient #1, 1:100 dilution",20
same,Fluorescence intesity,"serum of Uterine cervical Ca. patient #2, 1:100 dilution",2
same,Fluorescence intesity,"serum of Uterine cervical Ca. patient #3, 1:100 dilution",0
same,Fluorescence intesity,"serum of Uterine cervical Ca. patient #4, 1:100 dilution",29
same,Fluorescence intesity,"serum of Uterine cervical Ca. patient #5, 1:100 dilution",15
same,Fluorescence intesity,"serum of Uterine cervical Ca. patient #6, 1:100 dilution",922
same,Fluorescence intesity,"serum of Uterine cervical Ca. patient #7, 1:100 dilution",12
same,Fluorescence intesity,"serum of Uterine cervical Ca. patient #8, 1:100 dilution",28
same,Fluorescence intesity,"serum of Uterine cervical Ca. patient #9, 1:100 dilution",67
same,Fluorescence intesity,"serum of Uterine cervical Ca. patient #10, 1:100 dilution",15
same,Fluorescence intesity,"serum of Uterine cervical Ca. patient #11, 1:100 dilution",23
same,Fluorescence intesity,"serum of Uterine cervical Ca. patient #12, 1:100 dilution",35
same,Fluorescence intesity,"serum of Uterine cervical Ca. patient #13, 1:100 dilution",23
same,Fluorescence intesity,"serum of Uterine cervical Ca. patient #14, 1:100 dilution",20
same,Fluorescence intesity,"serum of Uterine cervical Ca. patient #15, 1:100 dilution",116
same,Fluorescence intesity,"serum of Uterine cervical Ca. patient #16, 1:100 dilution",182
same,Fluorescence intesity,"serum of Uterine cervical Ca. patient #17, 1:100 dilution",56
same,Fluorescence intesity,"serum of Uterine cervical Ca. patient #18, 1:100 dilution",49
same,Fluorescence intesity,"serum of Uterine cervical Ca. patient #19, 1:100 dilution",62
same,Fluorescence intesity,"serum of Uterine cervical Ca. patient #20, 1:100 dilution",106
same,Fluorescence intesity,"serum of Uterine cervical Ca. patient #21, 1:100 dilution",19
same,Fluorescence intesity,"serum of Uterine cervical Ca. patient #22, 1:100 dilution",20
same,Fluorescence intesity,"serum of Uterine cervical Ca. patient #23, 1:100 dilution",57
same,Fluorescence intesity,"serum of Uterine cervical Ca. patient #24, 1:100 dilution",1819
same,Fluorescence intesity,"serum of Uterine cervical Ca. patient #25, 1:100 dilution",17
same,Fluorescence intesity,"serum of Uterine cervical Ca. patient #26, 1:100 dilution",128
same,Fluorescence intesity,"serum of Uterine cervical Ca. patient #27, 1:100 dilution",28
same,Fluorescence intesity,"serum of Uterine cervical Ca. patient #28, 1:100 dilution",139
same,Fluorescence intesity,"serum of Uterine cervical Ca. patient #29, 1:100 dilution",14
same,Fluorescence intesity,"serum of Uterine cervical Ca. patient #30, 1:100 dilution",33
same,Fluorescence intesity,"serum of Uterine cervical Ca. patient #31, 1:100 dilution",108
same,Fluorescence intesity,"serum of Uterine cervical Ca. patient #32, 1:100 dilution",18
same,Fluorescence intesity,"serum of Uterine cervical Ca. patient #33, 1:100 dilution",141
same,Fluorescence intesity,"serum of Uterine cervical Ca. patient #34, 1:100 dilution",15
same,Fluorescence intesity,"serum of Uterine cervical Ca. patient #35, 1:100 dilution",18
